Measurements: the NIST ThermoML archive (doi:10.1016/j.jct.2013.11.027)
Several values for one entry are separate records, joined by “and”; a condition that tells them apart may be missing. Equal entries are not always repeated. ± gives the expanded uncertainty stated by the source.

Legend:
[1] = 101.33 kPa, Liquid; for speed of sound: Sing-around technique in a fixed-path interferometer; for mass density: Vibrating tube method
[2] = refractive index (Na D-line) (dimensionless); conditions: 101.33 kPa, Liquid, Standard Abbe refractometry
[3] = xn = mol fraction of the nth substance listed; conditions: 101 kPa, Liquid, x2 = 0; for speed of sound: Sing-around technique in a fixed-path interferometer; for mass density: Vibrating tube method
[4] = refractive index (Na D-line) (dimensionless); xn = mol fraction of the nth substance listed; conditions: 101 kPa, Liquid, Standard Abbe refractometry, x2 = 0

SMILES	speed of sound ([1]; 293.15 K) [m/s]	mass density ([1]; 293.15 K) [kg/m3]	speed of sound ([1]; 298.15 K) [m/s]	mass density ([1]; 298.15 K)	speed of sound ([1]; 303.15 K) [m/s]	mass density ([1]; 303.15 K) [kg/m3]	speed of sound ([1]; 308.15 K) [m/s]	mass density ([1]; 308.15 K)	speed of sound ([1]; 313.15 K) [m/s]	mass density ([1]; 313.15 K) [kg/m3]	speed of sound ([1]; 318.15 K) [m/s]	mass density ([1]; 318.15 K)	speed of sound ([1]; 323.15 K) [m/s]	mass density ([1]; 323.15 K) [kg/m3]	refractive index ([2]; 293.15 K)	refractive index ([2]; 298.15 K)	refractive index ([2]; 303.15 K)	refractive index ([2]; 308.15 K)	refractive index ([2]; 313.15 K)	refractive index ([2]; 318.15 K)	other results
CCCCCCCC[n+]1ccn(C)c1.F[B-](F)(F)F [1-methyl-3-octylimidazolium tetrafluoroborate]	1495.5 ± 2.3	1100.59 ± 1.1	1481.1 ± 2.3	1097.61 ± 1 kg/m3	1467.3 ± 2.3	1094.07 ± 1	1453.9 ± 2.3	1090.9 ± 1 kg/m3	1440.9 ± 2.3	1087.41 ± 1	1428.2 ± 2.3	1084.17 ± 1 kg/m3	1414.7 ± 2.3	1080.75 ± 1	1.43389 ± 0.0017	1.43296 ± 0.0017	1.43192 ± 0.0017	1.42939 ± 0.0017	1.42772 ± 0.0017	1.42684 ± 0.0017	refractive index ([2]; 323.15 K): 1.42696 ± 0.0017
C1COCCO1 [1,4-dioxane] + CCCCCCn1cc[n+](C)c1.F[B-](F)(F)F	–	–	–	–	–	–	–	–	–	–	–	–	–	–	–	–	–	–	–	–	speed of sound ([3]; 298.15 K): 1345 ± 1.2 m/s; mass density ([3]; 298.15 K): 1027.85 ± 0.12 kg/m3; speed of sound ([3]; 308.15 K): 1301.1 ± 1.2 m/s; mass density ([3]; 308.15 K): 1016.52 ± 0.12 kg/m3; speed of sound ([3]; 318.15 K): 1257.8 ± 1.2 m/s; mass density ([3]; 318.15 K): 1005.12 ± 0.12 kg/m3; refractive index ([4]; 298.15 K): 1.41967 ± 0.00037; refractive index ([4]; 308.15 K): 1.4148 ± 0.00037; refractive index ([4]; 318.15 K): 1.40993 ± 0.00037
C1CCOC1 [tetrahydrofuran] + CCCCCCCC[n+]1ccn(C)c1.F[B-](F)(F)F	–	–	–	–	–	–	–	–	–	–	–	–	–	–	–	–	–	–	–	–	speed of sound ([3]; 298.15 K): 1280.5 ± 1.4 m/s; mass density ([3]; 298.15 K): 882.209 ± 0.17 kg/m3; speed of sound ([3]; 308.15 K): 1232.5 ± 1.4 m/s; mass density ([3]; 308.15 K): 871.159 ± 0.17 kg/m3; speed of sound ([3]; 318.15 K): 1185.2 ± 1.4 m/s; mass density ([3]; 318.15 K): 859.955 ± 0.18 kg/m3; refractive index ([4]; 298.15 K): 1.4042 ± 0.00039; refractive index ([4]; 308.15 K): 1.39885 ± 0.00039; refractive index ([4]; 318.15 K): 1.39349 ± 0.00039
C1COCCO1 [1,4-dioxane] + CCCCCCCC[n+]1ccn(C)c1.F[B-](F)(F)F	–	–	–	–	–	–	–	–	–	–	–	–	–	–	–	–	–	–	–	–	speed of sound ([3]; 298.15 K): 1345 ± 1.2 m/s; mass density ([3]; 298.15 K): 1027.85 ± 0.12 kg/m3; speed of sound ([3]; 308.15 K): 1301.1 ± 1.2 m/s; mass density ([3]; 308.15 K): 1016.52 ± 0.12 kg/m3; speed of sound ([3]; 318.15 K): 1257.8 ± 1.2 m/s; mass density ([3]; 318.15 K): 1005.12 ± 0.12 kg/m3; refractive index ([4]; 298.15 K): 1.41967 ± 0.00037; refractive index ([4]; 308.15 K): 1.4148 ± 0.00037; refractive index ([4]; 318.15 K): 1.40993 ± 0.00037
C1CCOC1 [tetrahydrofuran] + CCCCCCn1cc[n+](C)c1.F[B-](F)(F)F	–	–	–	–	–	–	–	–	–	–	–	–	–	–	–	–	–	–	–	–	speed of sound ([3]; 298.15 K): 1280.5 ± 1.4 m/s; mass density ([3]; 298.15 K): 882.209 ± 0.17 kg/m3; speed of sound ([3]; 308.15 K): 1232.5 ± 1.4 m/s; mass density ([3]; 308.15 K): 871.159 ± 0.17 kg/m3; speed of sound ([3]; 318.15 K): 1185.2 ± 1.4 m/s; mass density ([3]; 318.15 K): 859.955 ± 0.18 kg/m3; refractive index ([4]; 298.15 K): 1.4042 ± 0.00039; refractive index ([4]; 308.15 K): 1.39885 ± 0.00039; refractive index ([4]; 318.15 K): 1.39349 ± 0.00039
C1COCCO1 [1,4-dioxane]	1367.2 ± 1.2	1033.5 ± 0.12	1345 ± 1.2	1027.85 ± 0.12 kg/m3	1323 ± 1.2	1022.19 ± 0.12	1301.1 ± 1.2	1016.52 ± 0.12 kg/m3	1279.4 ± 1.2	1010.83 ± 0.12	1257.8 ± 1.2	1005.12 ± 0.12 kg/m3	1236.3 ± 1.2	999.4 ± 0.12	1.42215 ± 0.00037	1.41967 ± 0.00037	1.41725 ± 0.00037	1.4148 ± 0.00037	1.41236 ± 0.00037	1.40993 ± 0.00037	refractive index ([2]; 323.15 K): 1.40749 ± 0.00037
C1CCOC1 [tetrahydrofuran]	1304.6 ± 1.4	888.69 ± 0.17	1280.5 ± 1.4	882.21 ± 0.17 kg/m3 and 882.209 ± 0.17 kg/m3	1256.4 ± 1.4	877.7 ± 0.17	1232.5 ± 1.4	872.16 ± 0.17 kg/m3 and 871.159 ± 0.17 kg/m3	1208.8 ± 1.4	866.58 ± 0.18	1185.2 ± 1.4	860.96 ± 0.18 kg/m3 and 859.955 ± 0.18 kg/m3	1161.7 ± 1.3	855.29 ± 0.18	1.40696 ± 0.00039	1.4042 ± 0.00039	1.40157 ± 0.00039	1.39885 ± 0.00039	1.39623 ± 0.00039	1.39349 ± 0.00039	refractive index ([2]; 323.15 K): 1.39083 ± 0.00039
CCCCCCn1cc[n+](C)c1.F[B-](F)(F)F [1-hexyl-3-methylimidazolium tetrafluoroborate]	1509.3 ± 2.3	1148.76 ± 1.1	1496.7 ± 2.3	1145.11 ± 1.1 kg/m3	1484.3 ± 2.3	1141.47 ± 1.1	1472 ± 2.3	1137.71 ± 1.1 kg/m3	1459.8 ± 2.3	1134.09 ± 1.1	1447.7 ± 2.3	1130.49 ± 1.1 kg/m3	1435.7 ± 2.3	1126.89 ± 1.1	1.43308 ± 0.00053	1.43167 ± 0.00053	1.43029 ± 0.00053	1.4289 ± 0.00053	1.42752 ± 0.00053	1.42612 ± 0.00053	refractive index ([2]; 323.15 K): 1.42474 ± 0.00053
